Laboratory results published in patent US10273228B2, “Hepatitis B viral assembly effectors” (Indiana University Research and Technology Corporation, priority 2015, dated 2019).

Key:
[1] = test system: HBV viral load, AD38 cells; experiment: Activity of test compounds on viral production from AD38 cells (viral load by quantitative PCR of the core sequence in supernatant); type: cell-based, Hepatitis B virus; settings: 10 μM compound, 6 days at 37° C., vs DMSO control wells, Table 9; for activity at 10 µM: Hepatitis B virus, 144 h, read-out: AD38 Viral Load (CpAM/DMSO %) at 10 μM
Procedure, shortened: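 Cells seeded at 50,000/well on collagen-coated plates and exposed for 6 days at 37 °C to compound at 1, 3 or 10 μM final (1.0% DMSO). Supernatant viral DNA measured by TaqMan qPCR of the core sequence against known standards, compared with DMSO control wells.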

AD38 cells = experiment: AD38 viability normalized to DMSO control; type: cell-based; settings: 10 μM compound, vs DMSO control; Table 9
Protocol: AD38 cells were then re-suspended with 10 mL of treatment medium and counted. Wells of a collagen coated 96-well NUNC microtiter plate were seeded at 50,000/well in 180 μL of treatment medium, and 20 μL of either 10% DMSO (Control) or a 10× solution of test compound in 10% DMSO in treatment media was added for a final compound concentration 1, 3, or 10 μM (1.0% final [DMSO]) and plates were incubated for 6 days at 37° C.

| SMILES | AD38 Viral Load (CpAM/DMSO %) at 10 μM [1] | AD38 Viability Normalized Result (CPAM/DMSO %) at 10 μM (AD38 cells) | activity at 10 µM [1] |
| --- | --- | --- | --- |
| COC(=O)Cc1ccc(S(=O)(=O)N2CCN(c3nc(C)cc(Nc4ccc(F)cc4)n3)CC2)cc1 [Compound 1393, methyl 2-(4-((4-(4-((4-fluorophenyl)amino)-6-methylpyrimidin-2-yl)piperazin-1-yl)sulfonyl)phenyl) acetate] | 79% | 102% | – |
| Cc1cc(Nc2ccc(F)cc2)nc(N2CCN(S(=O)(=O)c3ccc(OCCCC(=O)O)cc3)CC2)n1 [Compound 1394, 4-(4-((4-(4-((4-fluorophenyl)amino)-6-methylpyrimidin-2-yl)piperazin-1-yl)sulfonyl)phenoxy) butanoic acid] | – | 79% | 32% |
| Cc1cc(Nc2ccc(F)cc2)nc(N2CCN(S(=O)(=O)c3ccc(O[C@H](C)C(=O)O)cc3)CC2)n1 [Compound 1395, (R)-2-(4-((4-(4-((4-fluorophenyl)amino)-6-methylpyrimidin-2-yl)piperazin-1-yl)sulfonyl)phenoxy) propanoic acid] | – | 98% | 42% |
| Cc1cc(Nc2ccc(F)cc2)nc(N2CCN(S(=O)(=O)c3ccc(O[C@@H](C)C(=O)O)cc3)CC2)n1 [Compound 1396, (S)-2-(4-((4-(4-((4-fluorophenyl)amino)-6-methylpyrimidin-2-yl)piperazin-1-yl)sulfonyl)phenoxy) propanoic acid] | – | 100% | 70% |
| COC(=O)CCCOc1ccc(S(=O)(=O)N2CCN(c3nc(Nc4ccc(F)cc4)cc(C(F)(F)F)n3)CC2)cc1 [Compound 1397, methyl 4-(4-((4-(4-((4-fluorophenyl)amino)-6-(trifluoromethyl)pyrimidin-2-yl)piperazin-1-yl)sulfonyl)phenoxy) butanoate] | 5% | 33% | – |
| O=C(O)CCCOc1ccc(S(=O)(=O)N2CCN(c3nc(Nc4ccc(F)cc4)cc(C(F)(F)F)n3)CC2)cc1 [Compound 1398, 4-(4-((4-(4-((4-fluorophenyl)amino)-6-(trifluoromethyl)pyrimidin-2-yl)piperazin-1-yl)sulfonyl)phenoxy) butanoic acid] | – | 0% | 4% |
| O=C(O)COc1ccc(S(=O)(=O)N2CCN(c3nc(Nc4ccc(F)cc4)cc(C(F)(F)F)n3)CC2)cc1 [Compound 1399, 2-(4-((4-(4-((4-fluorophenyl)amino)-6-(trifluoromethyl)pyrimidin-2-yl)piperazin-1-yl)sulfonyl)phenoxy) acetic acid] | – | 93% | 43% |
| CCCOc1ccc(S(=O)(=O)N2CCN(c3nc(Nc4ccc(F)cc4)cc(C(F)(F)F)n3)CC2)cc1 [Compound 1400] | – | 93% | 73% |
| CCCCCOc1ccc(S(=O)(=O)N2CCN(c3nc(Nc4ccc(F)cc4)cc(C(F)(F)F)n3)CC2)cc1 [Compound 1401] | – | 97% | 42% |
| COCCOCCOc1ccc(S(=O)(=O)N2CCN(c3nc(Nc4ccc(F)cc4)cc(C(F)(F)F)n3)CC2)cc1 [Compound 1402] | – | 97% | 12% |
| Cc1cc(Nc2ccc(F)cc2)nc(N2CCN(S(=O)(=O)c3ccc(OC(C)(C)C(=O)O)cc3)CC2)n1 [Compound 1403, 2-(4-((4-(4-((4-fluorophenyl)amino)-6-methylpyrimidin-2-yl)piperazin-1-yl)sulfonyl)phenoxy)-2-methylpropanoic acid] | – | 100% | 83% |
| CCOC(=O)C(C)(C)Oc1ccc(S(=O)(=O)N2CCN(c3nc(C)cc(Nc4ccc(F)cc4)n3)CC2)cc1 [Compound 1404, ethyl 2-(4-((4-(4-((4-fluorophenyl)amino)-6-methylpyrimidin-2-yl)piperazin-1-yl)sulfonyl)phenoxy)-2-methylpropanoate] | – | 96% | 90% |
| CC(C)(Oc1ccc(S(=O)(=O)N2CCN(c3nc(Nc4ccc(F)cc4)cc(C(F)(F)F)n3)CC2)cc1)C(=O)O [Compound 1405, 2-(4-((4-(4-((4-fluorophenyl)amino)-6-(trifluoromethyl)pyrimidin-2-yl)piperazin-1-yl)sulfonyl)phenoxy)-2-methylpropanoic acid] | – | 84% | 28% |
| CCOC(=O)C(C)(C)Oc1ccc(S(=O)(=O)N2CCN(c3nc(Nc4ccc(F)cc4)cc(C(F)(F)F)n3)CC2)cc1 [Compound 1406, ethyl 2-(4-((4-(4-((4-fluorophenyl)amino)-6-(trifluoromethyl)pyrimidin-2-yl)piperazin-1-yl)sulfonyl)phenoxy)-2-methylpropanoate] | – | 98% | 63% |
| COCCOc1ccc(S(=O)(=O)N2CCN(c3nc(Nc4ccc(F)cc4)cc(C(F)(F)F)n3)CC2)cc1 [Compound 1407] | – | 91% | 12% |
| COC(=O)Cc1ccc(S(=O)(=O)N2CCN(c3nc(Nc4ccc(F)cc4)cc(C(F)(F)F)n3)CC2)cc1 [Compound 1408, methyl 2-(4-((4-(4-((4-fluorophenyl)amino)-6-(trifluoromethyl)pyrimidin-2-yl)piperazin-1-yl)sulfonyl)phenyl) acetate] | 8% | 107% | – |
| C[C@@H](Oc1ccc(S(=O)(=O)N2CCN(c3nc(Nc4ccc(F)cc4)cc(C(F)(F)F)n3)CC2)cc1)C(=O)O [Compound 1409, (R)-2-(4-((4-(4-((4-fluorophenyl)amino)-6-(trifluoromethyl)pyrimidin-2-yl)piperazin-1-yl)sulfonyl)phenoxy) propanoic acid] | – | 108% | 59% |
| C[C@H](Oc1ccc(S(=O)(=O)N2CCN(c3nc(Nc4ccc(F)cc4)cc(C(F)(F)F)n3)CC2)cc1)C(=O)O [Compound 1410, (S)-2-(4-((4-(4-((4-fluorophenyl)amino)-6-(trifluoromethyl)pyrimidin-2-yl)piperazin-1-yl)sulfonyl)phenoxy) propanoic acid] | – | 58% | 14% |
| Cc1cc(Nc2ccc(F)cc2)nc(N2CCN(S(=O)(=O)c3cccc(CC(=O)O)c3)CC2)n1 [Compound 1411, 2-(3-((4-(4-((4-fluorophenyl)amino)-6-methylpyrimidin-2-yl)piperazin-1-yl)sulfonyl)phenyl) acetic acid] | – | 102% | 117% |
| COC(=O)Cc1cccc(S(=O)(=O)N2CCN(c3nc(C)cc(Nc4ccc(F)cc4)n3)CC2)c1 [Compound 1412, methyl 2-(3-((4-(4-((4-fluorophenyl)amino)-6-methylpyrimidin-2-yl)piperazin-1-yl)sulfonyl)phenyl) acetate] | – | 109% | 61% |
| O=S(=O)(c1ccc(OC(F)(F)F)cc1)N1CCN(c2nc(Nc3ccccn3)cc(C(F)(F)F)n2)CC1 [Compound 1415] | – | 101% | 120% |
| O=S(=O)(c1ccc(OC(F)(F)F)cc1)N1CCN(c2nc(Nc3nccs3)cc(C(F)(F)F)n2)CC1 [Compound 1418, N-(2-(4-((4-(trifluoromethoxy)phenyl)sulfonyl)piperazin-1-yl)-6-(trifluoromethyl)pyrimidin-4-yl) thiazol-2-amine] | – | 100% | 120% |
| O=S(=O)(c1ccc(OC(F)(F)F)cc1)N1CCCN(c2nc(Nc3ccc(F)cc3)cc(C(F)(F)F)n2)CC1 [Compound 1419] | – | 93% | 11% |
